Assay results from patent US12410160B2 (Gilead Sciences, Inc., priority 2021, dated 2025).

Key:
human KHK-A = human KHK-A (Homo sapiens (Human), UniProt P50053); assay: KHK Biochemical Assay (IC50), ADP-Glo, KHK-A; details: average of at least two separate assays
Procedure, shortened: (§1)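 ADP-Glo luminescence measured ADP made over a 4 h room-temperature reaction of ATP plus fructose, started after 30 min compound–enzyme pre-incubation. Buffer: 50 mM Hepes pH 7.4, 140 mM KCl, 5 mM MgCl2, 0.01% Triton-X. Enzyme was His-tagged, BL21 (DE3)-expressed, Ni-NTA-purified; compounds in 1:3 DMSO dilution series.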

human KHK-C = human KHK-C (Homo sapiens (Human), UniProt P50053); assay: KHK Biochemical Assay (IC50), ADP-Glo, KHK-C; details: average of at least two separate assays
Sequence of human KHK-C (P50053 whole entry): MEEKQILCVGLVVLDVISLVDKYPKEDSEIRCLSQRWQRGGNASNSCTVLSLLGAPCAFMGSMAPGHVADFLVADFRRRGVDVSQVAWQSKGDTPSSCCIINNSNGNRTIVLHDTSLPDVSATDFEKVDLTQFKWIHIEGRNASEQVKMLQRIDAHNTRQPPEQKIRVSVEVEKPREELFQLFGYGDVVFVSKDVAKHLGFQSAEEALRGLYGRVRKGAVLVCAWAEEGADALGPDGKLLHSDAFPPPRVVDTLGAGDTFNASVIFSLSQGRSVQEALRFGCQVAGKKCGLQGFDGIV
Procedure, shortened: as §1

Sequence of human KHK-A (P50053 other isoform, or with tags, fused parts or gaps): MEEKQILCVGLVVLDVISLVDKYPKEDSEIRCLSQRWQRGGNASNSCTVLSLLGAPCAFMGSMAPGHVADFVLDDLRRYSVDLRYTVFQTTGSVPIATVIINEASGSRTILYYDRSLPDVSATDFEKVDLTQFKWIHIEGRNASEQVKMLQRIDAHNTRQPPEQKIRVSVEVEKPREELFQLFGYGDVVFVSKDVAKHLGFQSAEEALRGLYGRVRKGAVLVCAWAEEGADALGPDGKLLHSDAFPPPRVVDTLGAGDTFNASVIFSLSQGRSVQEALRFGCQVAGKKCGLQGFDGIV

Structure (SMILES)	IC50 (human KHK-A; ADP-Glo) [nM]	IC50 (human KHK-C; ADP-Glo) [nM]	IC50 (human KHK-A) [nM]	IC50 (human KHK-C) [nM]
C[C@H]1CCN1c1nc2c(c(-c3cccc(CNC(=O)OC(C)(C)C)c3)n1)CCC2 [Example 328, tert-butyl N-[[3-[2-[(2S)-2-methylazetidin-1-yl]-6,7-dihydro-5H-cyclopenta[d]pyrimidin-4-yl]phenyl]methyl]carbamate]	609	502		
C[C@H]1CCN1c1nc2c(c(-c3ccccc3)n1)CC1(CC1)C2 [Example 335, 2-[(2S)-2-methylazetidin-1-yl]-4-phenyl-spiro[5,7-dihydrocyclopenta[d]pyrimidine-6,1′-cyclopropane]]	> 50000	> 50000		
CC1CCc2c(-c3ccccc3)nc(N3CC[C@@H]3C)nc21 (stereo partly drawn) [Example 336, 7-methyl-2-[(2S)-2-methylazetidin-1-yl]-4-phenyl-6,7-dihydro-5H-cyclopenta[d]pyrimidine]	13200	20100		
CC1Cc2nc(N3CC[C@@H]3C)nc(-c3ccccc3)c2C1 (stereo partly drawn) [Example 337, 6-methyl-2-[(2S)-2-methylazetidin-1-yl]-4-phenyl-6,7-dihydro-5H-cyclopenta[d]pyrimidine]	2950	5100		
C[C@H]1CCN1c1nc(-c2ccccc2)c2c(n1)C1(CC2)CC1 [Example 338, 2-[(2S)-2-methylazetidin-1-yl]-4-phenyl-spiro[5,6-dihydrocyclopenta[d]pyrimidine-7,1′-cyclopropane]]	> 50000	> 50000		
CC1CCc2nc(N3CC[C@@H]3C)nc(-c3ccccc3)c21 (stereo partly drawn) [Example 339, 5-methyl-2-[(2S)-2-methylazetidin-1-yl]-4-phenyl-6,7-dihydro-5H-cyclopenta[d]pyrimidine]	1900	2220		
Cc1cnc(-c2nc(N3CC[C@@H]3C)nc3c2CCC3)s1 [Example 342, 5-methyl-2-[2-[(2S)-2-methylazetidin-1-yl]-6,7-dihydro-5H-cyclopenta[d]pyrimidin-4-yl]thiazole]	107	107		
C[C@H]1CCN1c1nc2c(c(-c3ccnnc3)n1)CCC2 [Example 343, 2-[(2S)-2-methylazetidin-1-yl]-4-pyridazin-4-yl-6,7-dihydro-5H-cyclopenta[d]pyrimidine]	357	408		
C[C@H]1CCN1c1nc2c(c(-c3cnccn3)n1)CCC2 [Example 344, 2-[(2S)-2-methylazetidin-1-yl]-4-pyrazin-2-yl-6,7-dihydro-5H-cyclopenta[d]pyrimidine]	175	224		
C[C@H]1CCN1c1nc2c(c(-c3ccc(S(C)(=O)=O)cc3)n1)CCC2 [Example 354, 2-[(2S)-2-methylazetidin-1-yl]-4-(4-methylsulfonylphenyl)-6,7-dihydro-5H-cyclopenta[d]pyrimidine]	177	138		
Cc1cc(-c2nc(N3CC[C@@H]3C)nc3c2CCC3)ccc1C(=O)NCCO [Example 356, N-(2-hydroxyethyl)-2-methyl-4-[2-[(2S)-2-methylazetidin-1-yl]-6,7-dihydro-5H-cyclopenta[d]pyrimidin-4-yl]benzamide]	70.6	79.9		
Cc1cc(-c2nc(N3CC[C@@H]3C)nc3c2CCC3)ccc1C(=O)N(C)C [Example 357, N,N,2-trimethyl-4-[2-[(2S)-2-methylazetidin-1-yl]-6,7-dihydro-5H-cyclopenta[d]pyrimidin-4-yl]benzamide]	122	162		
C[C@H]1CCN1c1nc2c(c(-c3ccc(CNC(=O)c4ccccc4)cc3)n1)CCC2 [Example 360, N-[[4-[2-[(2S)-2-methylazetidin-1-yl]-6,7-dihydro-5H-cyclopenta[d]pyrimidin-4-yl]phenyl]methyl]benzamide]	169	253		
C[C@H]1[C@H](O)CN1c1nc2c(c(-c3ccc(CN)s3)n1)CCC2 [Example 363, (2S,3R)-1-[4-[5-(aminomethyl)-2-thienyl]-6,7-dihydro-5H-cyclopenta[d]pyrimidin-2-yl]-2-methyl-azetidin-3-ol]	25.8	29.1		
C[C@H]1CCN1c1nc2c(c(-c3ccc(CN4CCOCC4)cc3)n1)CCC2 [Example 367, 4-[[4-[2-[(2S)-2-methylazetidin-1-yl]-6,7-dihydro-5H-cyclopenta[d]pyrimidin-4-yl]phenyl]methyl]morpholine]	224	176		
C[C@H]1CCN1c1nc2c(c(-c3ccc(CN(C)C)cc3)n1)CCC2 [Example 368, N,N-dimethyl-1-[4-[2-[(2S)-2-methylazetidin-1-yl]-6,7-dihydro-5H-cyclopenta[d]pyrimidin-4-yl]phenyl]methanamine]	38.3	20		

Other lines, results leading:

IC50 (human KHK-A; ADP-Glo) [nM]	IC50 (human KHK-C; ADP-Glo) [nM]	IC50 (human KHK-A) [nM]	IC50 (human KHK-C) [nM]	Structure (SMILES)
186	87.1			C[C@H]1CCN1c1nc2c(c(-c3ccc(C(C)(C)O)cc3)n1)CCC2 [Example 369, 2-[4-[2-[(2S)-2-methylazetidin-1-yl]-6,7-dihydro-5H-cyclopenta[d]pyrimidin-4-yl]phenyl]propan-2-ol]
		130	306	C[C@H]1CCN1c1nc2c(c(-c3cccc(C(N)=O)c3)n1)C1CC1C2 (stereo partly drawn) [Example 445, 3-(2-((S)-2-methylazetidin-1-yl)-4b,5,5a,6-tetrahydrocyclopropa[3,4]cyclopenta[1,2-d]pyrimidin-4-yl)benzamide]
		103	68.3	C[C@H]1CCN1c1nc2c(c(-c3ccc4c(c3)[nH]c(=O)n4C)n1)CCC2 [Example 452, 3-methyl-6-[2-[(2S)-2-methylazetidin-1-yl]-6,7-dihydro-5H-cyclopenta[d]pyrimidin-4-yl]-1H-benzimidazol-2-one]
		2.2	0.1	C[C@H]1[C@H](O)CN1c1nc(-c2ccc3c(c2)OCC32COCC(=O)N2)c2c(n1)C(F)(F)CC2 (stereo partly drawn) [Example 497, 6-(7,7-difluoro-2-((2S,3R)-3-hydroxy-2-methylazetidin-1-yl)-6,7-dihydro-5H-cyclopenta[d]pyrimidin-4-yl)-2H-spiro[benzofuran-3,3′-morpholin]-5′-one]
		0.9	1.3	C[C@H]1[C@H](O)CN1c1nc(-c2ccc(OC3CC3)c(S(C)(=N)=O)c2)c2c(n1)C(F)(F)CC2 (stereo partly drawn) [Example 541, (2-cyclopropoxy-5-(7,7-difluoro-2-((2S,3R)-3-hydroxy-2-methylazetidin-1-yl)-6,7-dihydro-5H-cyclopenta[d]pyrimidin-4-yl)phenyl)(imino)(methyl)-λ^6-sulfanone]
		7.3	0.1	C[C@H]1[C@H](O)CN1c1nc(-c2ccc3c(c2)CCC32COCC(=O)N2)c2c(n1)C(F)(F)CC2 (stereo partly drawn) [Example 548, 5-(7,7-difluoro-2-((2S,3R)-3-hydroxy-2-methylazetidin-1-yl)-6,7-dihydro-5H-cyclopenta[d]pyrimidin-4-yl)-2,3-dihydrospiro[indene-1,3′-morpholin]-5′-one]
		5.1	0.9	C[C@H]1[C@H](O)CN1c1nc(-c2ccc3c(c2)OCCC32NC(=O)NC2=O)c2c(n1)C(F)(F)CC2 (stereo partly drawn) [Example 551, 7-(7,7-difluoro-2-((2S,3R)-3-hydroxy-2-methylazetidin-1-yl)-6,7-dihydro-5H-cyclopenta[d]pyrimidin-4-yl)spiro[chromane-4,4′-imidazolidine]-2′,5′-dione]
		15.3	1.6	C[C@H]1[C@H](O)CN1c1nc(-c2ccc3c(c2)OCCC32COC(=O)N2)c2c(n1)C(F)(F)CC2 (stereo partly drawn) [Example 553, 7-(7,7-difluoro-2-((2S,3R)-3-hydroxy-2-methylazetidin-1-yl)-6,7-dihydro-5H-cyclopenta[d]pyrimidin-4-yl)spiro[chromane-4,4′-oxazolidin]-2′-one]
		29.2	2.8	C[C@H]1[C@H](O)CN1c1nc(-c2ccc3c(c2)COCC32COC(=O)N2)c2c(n1)C(F)(F)CC2 (stereo partly drawn) [Example 554, 7-(7,7-difluoro-2-((2S,3R)-3-hydroxy-2-methylazetidin-1-yl)-6,7-dihydro-5H-cyclopenta[d]pyrimidin-4-yl)spiro[isochromane-4,4′-oxazolidin]-2′-one]
		10.8	8.6	C[C@H]1[C@H](O)CN1c1nc(-c2ccc3c(c2)CC2OC(=O)NC32)c2c(n1)C(F)(F)CC2 (stereo partly drawn) [Example 557, 6-(7,7-difluoro-2-((2S,3R)-3-hydroxy-2-methylazetidin-1-yl)-6,7-dihydro-5H-cyclopenta[d]pyrimidin-4-yl)-3,3a,8,8a-tetrahydro-2H-indeno[1,2-cl]oxazol-2-one]
		8.2	0.2	CC1OCC2(COc3cc(-c4nc(N5C[C@@H](O)[C@@H]5C)nc5c4CCC5(F)F)ccc32)NC1=O (stereo partly drawn) [Example 558, 6-(7,7-difluoro-2-((2S,3R)-3-hydroxy-2-methylazetidin-1-yl)-6,7-dihydro-5H-cyclopenta[d]pyrimidin-4-yl)-6′-methyl-2H-spiro[benzofuran-3,3′-morpholin]-5′-one]
		43	15.2	COC[C@H]1CCN1c1nc(-c2ccc(C3(N)COC3)cc2)c2c(n1)C(F)(F)CC2 [Example 569, (R)-3-(4-(7,7-difluoro-2-(2-(methoxymethyl)azetidin-1-yl)-6,7-dihydro-5H-cyclopenta[d]pyrimidin-4-yl)phenyl)oxetan-3-amine]
		25	10.9	C[C@H]1CCCN1c1nc(-c2ccc(C3(N)COC3)cc2)c2c(n1)C(F)(F)CC2 [Example 570, (S)-3-(4-(7,7-difluoro-2-(2-methylpyrrolidin-1-yl)-6,7-dihydro-5H-cyclopenta[d]pyrimidin-4-yl)phenyl)oxetan-3-amine]
		43.5	49.7	NC1(c2ccc(-c3nc(N4CCC5CC54)nc4c3CCC4(F)F)cc2)COC1 (stereo not drawn) [Example 571, 3-(4-(2-(2-azabicyclo[3.1.0]hexan-2-yl)-7,7-difluoro-6,7-dihydro-5H-cyclopenta[d]pyrimidin-4-yl)phenyl)oxetan-3-amine]
